In patent publication US8703779B2, “Preparation of crystalline forms of dihydropyrazolopyrimidinone” (Merck Sharp & Dohme Corp., priority 2009, dated 2014):

Key:
[1] = biological target: Weel kinase (Homo sapiens, UniProt P30291); conditions: cited from earlier work
[2] = relative thermodynamic stability of crystalline forms; format: physicochemical
Procedure: The novel crystalline forms of Compound A or a salt thereof, especially the hemihydrates described herein, can be provided stably and constantly from the standpoint of the manufacturing process, and are useful in the treatment of cancer. […] The relative stability of the hemihydrates and monohydrate Form G at relative humidity higher than 93% has been difficult to establish, because the solubility of the three crystalline forms are very close (difference <1 mg/mL) and the conversion is very slow.

Chain of Weel kinase (P30291 whole entry): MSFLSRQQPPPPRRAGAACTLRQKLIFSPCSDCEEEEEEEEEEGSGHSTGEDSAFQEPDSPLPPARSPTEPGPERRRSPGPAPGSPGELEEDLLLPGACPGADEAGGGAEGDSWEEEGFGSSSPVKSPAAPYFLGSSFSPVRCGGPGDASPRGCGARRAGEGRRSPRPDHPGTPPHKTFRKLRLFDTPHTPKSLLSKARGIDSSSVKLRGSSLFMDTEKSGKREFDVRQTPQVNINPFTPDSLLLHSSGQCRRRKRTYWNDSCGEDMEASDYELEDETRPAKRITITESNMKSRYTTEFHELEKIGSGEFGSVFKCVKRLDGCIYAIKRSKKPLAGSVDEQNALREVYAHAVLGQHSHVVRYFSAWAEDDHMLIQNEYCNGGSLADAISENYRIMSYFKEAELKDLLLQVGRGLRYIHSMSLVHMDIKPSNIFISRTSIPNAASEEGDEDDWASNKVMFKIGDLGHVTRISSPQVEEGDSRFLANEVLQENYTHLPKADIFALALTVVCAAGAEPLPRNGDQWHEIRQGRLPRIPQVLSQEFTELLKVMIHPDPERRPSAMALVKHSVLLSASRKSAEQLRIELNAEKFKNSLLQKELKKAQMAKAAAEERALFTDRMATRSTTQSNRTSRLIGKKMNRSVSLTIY

C=CCn1c(=O)c2cnc(Nc3ccc(N4CCN(C)CC4)cc3)nc2n1-c1cccc(C(C)(C)O)n1 [Compound A, 2-allyl-1-[6-(1-hydroxy-1-methylethyl)pyridin-2-yl]-6-{[4-(4-methylpiperazin-1-yl)phenyl]amino}-1,2-dihydro-3H-pyrazolo[3,4-d]pyrimidin-3-one]
Weel kinase inhibitory effect [1]: excellent Weel kinase inhibitory effect

C=CCn1c(=O)c2cnc(Nc3ccc(N4CCN(C)CC4)cc3)nc2n1-c1cccc(C(C)(C)O)n1 [crystalline hemihydrate form I, 2-allyl-1-[6-(1-hydroxy-1-methylethyl)pyridin-2-yl]-6-{[4-(4-methylpiperazin-1-yl)phenyl]amino}-1,2-dihydro-3H-pyrazolo[3,4-d]pyrimidin-3-one]
thermodynamic stability relative to other known forms ([2]; temperatures up to 44° C. and relative humidity range of 14-93%): more stable thermodynamically than other known forms

C=CCn1c(=O)c2cnc(Nc3ccc(N4CCN(C)CC4)cc3)nc2n1-c1cccc(C(C)(C)O)n1 [crystalline hemihydrate form II, 2-allyl-1-[6-(1-hydroxy-1-methylethyl)pyridin-2-yl]-6-{[4-(4-methylpiperazin-1-yl)phenyl]amino}-1,2-dihydro-3H-pyrazolo[3,4-d]pyrimidin-3-one]
thermodynamic stability relative to other known forms ([2]; temperatures equal or higher than 48° C. and relative humidity range of 19-93%): more stable thermodynamically than other known forms
